Results reported in patent publication US9175045B2, “Peptidomimetic macrocycles” (Aileron Therapeutics, Inc., priority 2008, dated 2015).
Numbered stars: 1 amine (or outer) side, 2 acyl side, 3 side chain; on linkers, the order of the positions; unused ones are H or OH. Bridge positions count the residues as written; N and C are the ends. Square brackets hold non-standard residues; d marks the D form. Peptide text beside a SMILES is read from it. * marks the point of attachment. ξ: configuration not given here. ξαMeNle(6-ylidene) = CC(CCCC=[*:3])(N[*:1])C(=O)[*:2]; S5 = C=CCCC[C@](C)(N)C(=O)O; Nle = CCCC[C@H](N)C(=O)O; Aib = CC(C)(N)C(=O)O; Propionyl = CCC(=O)*

B1: Compound 8 (crosslinked polypeptide derived from human BID BH3) (peptide)
peptide: Propionyl-RNIARHLA[S5]VGD[S5][Nle][Aib]RSI-NH2
modifications: staple 9-13
B2: Compound 1 (crosslinked polypeptide derived from human BID BH3) (peptide)
peptide: Ac-DIIRNIARHLA[S5]VGD[S5][Nle]DRSI-NH2
modifications: staple 12-16
B3: Compound 7 (crosslinked polypeptide derived from human BID BH3) (peptide)
peptide: Propionyl-RNIARHLA[S5]V[Aib]D[S5]FARSI-NH2
modifications: staple 9-13
B4: Compound 6 (crosslinked polypeptide derived from human BID BH3) (peptide)
peptide: Propionyl-RNIARHL[Aib][S5]V[Aib]D[S5][Nle]DRSI-NH2
modifications: staple 9-13
B5: Compound 5 (crosslinked polypeptide derived from human BID BH3) (peptide)
peptide: Propionyl-RNIARHLA[S5]V[Aib]D[S5][Nle]DRSI-NH2
modifications: staple 9-13

How the values were obtained:
human serum proteins = assay: Apparent affinity to human serum proteins (Kd*) by EC50 shift analysis; type: in vitro ADME; settings: nonlinear regression of EC50 shift with serum, n = 1, P = 700 μM for 100% serum
From the text: The measurement of apparent Kd values for serum protein by EC50 shift analysis provides a simple and rapid means of quantifying the propensity of experimental compounds to bind HSA and other serum proteins. A linear relationship exists between the apparent EC50 in the presence of serum protein (EC′50) and the amount of serum protein added to an in vitro assay. This relationship is defined by the binding affinity of the compound for serum proteins, expressed as Kd*. This term is an experimentally determined, apparent dissociation constant that may result from the cumulative effects of multiple, experimentally indistinguishable, binding events. The form of this relationship is presented here in Eq. 0.3, and its derivation can be found in Copeland et al, Biorg. Med. Chem. Lett. 2004, 14:2309-2312. [formula] A significant proportion of serum protein binding can be ascribed to drug interactions with HSA, due to the very high concentration of this protein in serum (35-50 g/L or 530-758 μM). To calculate the Kd value for these compounds we have assumed that the shift in EC50 upon protein addition can be ascribed fully to the HSA present in the added serum, where P is 700 μM for 100% serum, P is 70 μM for 10% serum, etc. We further made the simplifying assumption that all of the compounds bind HSA with a 1:1 stoichiometry, so that the term n in Eq. (0.3) is fixed at unity. With these parameters in place we calculated the Kd* value for each stapled peptide from the changes in EC50 values with increasing serum (and serum protein) concentrations by nonlinear regression analysis of Eq. 0.3 using Mathematica 4.1 (Wolfram Research, Inc., www.wolfram.com). EC′50 values in whole blood are estimated by setting P in Eq. 0.3 to 700 μM [HSA].

Jurkat cell line = type: cell-based; settings: for EC50: 24 h
Experimental: Jurkat cell line (Clone E6-1, ATCC catalog #TIB-152) is grown in specific serum-supplemented media (RPMI-1640, Invitrogen catalog #22400) as recommended by ATCC. A day prior to the initiation of the study, cells are split at optimal cell density (2×10^5-5×10^5 cells/ml) to assure actively dividing cells. The next day, cells are washed twice in serum-free Opti-MEM media (Invitrogen, Catalog #51985) and cells are then plated at optimal cell density (10,000 cells/well) in 50 μl Opti-MEM media or Opti-MEM supplemented with 2% or 10% human serum (Bioreclamation, catalog #HMSRM) in 96-well white tissue culture plate (Nunc, catalog #136102).
For serum free experiment, crosslinked polypeptides are diluted from 2 mM stocks (100% DMSO) in sterile water to prepare 400 μM working solutions. The crosslinked polypeptides and controls are diluted 10-fold first and then serially two-fold diluted in Opti-MEM in dosing plates to provide concentrations of between 1.2 and 40 μM. 50 μl of each dilution is then added to the appropriate wells of the test plate to achieve final concentrations of the polypeptides equal to between 0.6 to 20 μM. For studies using Opti-MEM supplemented with human serum (Bioreclamation, catalog #HMSRM), crosslinked polypeptides are diluted from 10 mM stocks (100% DMSO) in sterile water to prepare 2 mM working solutions. The crosslinked polypeptides and controls are diluted 10-fold first and then serially two-fold diluted in Opti-MEM in the presence of 2% or 10% of human serum to provide concentrations of the polypeptides equal to between 6.25 to 200 μM in dosing plates. 50 μl of each dilution is then added to the appropriate wells of the test plate to achieve final concentrations of the polypeptides equal to between 3.125 to 100 μM. Controls included wells without polypeptides containing the same concentration of DMSO as the wells containing the macrocycles, wells containing 0.1% Triton X-100 and wells containing no cells. Plates are incubated for 24 hours at 37° C. in humidified 5% CO2 atmosphere.
At the end of the incubation period, CellTiter-Glo assay is performed according to manufacturer's instructions (Promega, catalog #G7573) and luminescence is measured using Synergy HT Plate reader (BioTek). Luminescence correlates with viability. A reduction in viability reflects the ability of the test compounds to induce programmed cell death via BAX and BAK.

[1] = biological target: T1, human serum proteins (binding ascribed fully to human serum albumin, HSA) (human, UniProt P02768 25-609); assay: apparent Kd* by EC50 shift analysis: Jurkat viability EC50 at 0, 2 and 10% human serum, fit assuming 1:1 binding to HSA
T1 construct: No purified HSA was used
T1 sequence (P02768 25-609 limits assumed): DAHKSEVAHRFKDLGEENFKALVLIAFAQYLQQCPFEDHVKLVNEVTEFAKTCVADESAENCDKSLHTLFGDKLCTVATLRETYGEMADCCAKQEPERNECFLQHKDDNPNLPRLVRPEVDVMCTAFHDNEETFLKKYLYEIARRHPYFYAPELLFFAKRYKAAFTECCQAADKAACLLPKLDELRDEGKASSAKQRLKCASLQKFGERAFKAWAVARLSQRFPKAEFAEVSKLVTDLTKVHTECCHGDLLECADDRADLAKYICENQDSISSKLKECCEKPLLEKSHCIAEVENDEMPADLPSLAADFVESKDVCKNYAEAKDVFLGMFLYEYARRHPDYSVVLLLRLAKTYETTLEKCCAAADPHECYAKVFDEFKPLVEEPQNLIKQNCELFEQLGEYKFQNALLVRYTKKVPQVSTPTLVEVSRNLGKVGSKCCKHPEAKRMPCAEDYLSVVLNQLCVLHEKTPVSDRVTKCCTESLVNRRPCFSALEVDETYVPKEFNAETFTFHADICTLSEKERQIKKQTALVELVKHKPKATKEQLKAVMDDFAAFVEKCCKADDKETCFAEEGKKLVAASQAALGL

[2] = biological target: T1, human serum proteins (binding ascribed …); assay: cell-based or functional assay

Row | Molecule | Kd (human serum proteins) [nM] | EC50 (Jurkat cell line) [nM] | efficacy in serum-free media and in the presence of serum (Jurkat cell line; statement in words) | Kd [1] [nM] | 2% serum EC50 (Jurkat cell viability, CellTiter-Glo) [2] [nM] | 10% serum EC50 (Jurkat cell viability, CellTiter-Glo) [2] [nM]
1 | CCCC[C@H](NC(=O)C1(C)CCCC=CCCCC(C)(NC(=O)[C@H](C)NC(=O)[C@H](CC(C)C)NC(=O)[C@H](Cc2c[nH]cn2)NC(=O)[C@H](CCCNC(=N)N)NC(=O)[C@H](C)NC(=O)[C@@H](NC(=O)[C@H](CC(N)=O)NC(=O)[C@H](CCCNC(=N)N)NC(=O)CC)[C@@H](C)CC)C(=O)N[C@@H](C(C)C)C(=O)NC(C)(C)C(=O)N[C@@H](CC(=O)O)C(=O)N1)C(=O)N[C@@H](CC(=O)O)C(=O)N[C@@H](CCCNC(=N)N)C(=O)N[C@@H](CO)C(=O)N[C@H](C(N)=O)[C@@H](C)CC (stereo partly drawn) [Compound 5, Pr-RNIARHLA$VAibD$NleDRSI-NH2] (Propionyl-RNIARHLA[ξαMeNle(6-ylidene)]V[Aib]D[ξαMeNle(6-ylidene)][Nle]DRSI-NH2; staple 9-13) | 200 | 1600 |  |  |  | 
2 | CCCC[C@H](NC(=O)C1(C)CCCC=CCCCC(C)(NC(=O)C(C)(C)NC(=O)[C@H](CC(C)C)NC(=O)[C@H](Cc2c[nH]cn2)NC(=O)[C@H](CCCNC(=N)N)NC(=O)[C@H](C)NC(=O)[C@@H](NC(=O)[C@H](CC(N)=O)NC(=O)[C@H](CCCNC(=N)N)NC(=O)CC)[C@@H](C)CC)C(=O)N[C@@H](C(C)C)C(=O)NC(C)(C)C(=O)N[C@@H](CC(=O)O)C(=O)N1)C(=O)N[C@@H](CC(=O)O)C(=O)N[C@@H](CCCNC(=N)N)C(=O)N[C@@H](CO)C(=O)N[C@H](C(N)=O)[C@@H](C)CC (stereo partly drawn) [Compound 6, Pr-RNIARHLAib$VAibD$NleDRSI-NH2] (Propionyl-RNIARHL[Aib][ξαMeNle(6-ylidene)]V[Aib]D[ξαMeNle(6-ylidene)][Nle]DRSI-NH2; staple 9-13) | 400 | 1000 |  |  |  | 
3 | CCC(=O)N[C@@H](CCCNC(=N)N)C(=O)N[C@@H](CC(N)=O)C(=O)N[C@H](C(=O)N[C@@H](C)C(=O)N[C@@H](CCCNC(=N)N)C(=O)N[C@@H](Cc1c[nH]cn1)C(=O)N[C@@H](CC(C)C)C(=O)N[C@@H](C)C(=O)NC1(C)CCCC=CCCCC(C)(C(=O)N[C@@H](Cc2ccccc2)C(=O)N[C@@H](C)C(=O)N[C@@H](CCCNC(=N)N)C(=O)N[C@@H](CO)C(=O)N[C@H](C(N)=O)[C@@H](C)CC)NC(=O)[C@H](CC(=O)O)NC(=O)C(C)(C)NC(=O)[C@H](C(C)C)NC1=O)[C@@H](C)CC (stereo partly drawn) [Compound 7, Pr-RNIARHLA$VAibD$FARSI-NH2] (Propionyl-RNIARHLA[ξαMeNle(6-ylidene)]V[Aib]D[ξαMeNle(6-ylidene)]FARSI-NH2; staple 9-13) | 1100 | 2200 |  |  |  | 
4 | CCCC[C@H](NC(=O)C1(C)CCCC=CCCCC(C)(NC(=O)[C@H](C)NC(=O)[C@H](CC(C)C)NC(=O)[C@H](Cc2c[nH]cn2)NC(=O)[C@H](CCCNC(=N)N)NC(=O)[C@H](C)NC(=O)[C@@H](NC(=O)[C@H](CC(N)=O)NC(=O)[C@H](CCCNC(=N)N)NC(=O)CC)[C@@H](C)CC)C(=O)N[C@@H](C(C)C)C(=O)NCC(=O)N[C@@H](CC(=O)O)C(=O)N1)C(=O)NC(C)(C)C(=O)N[C@@H](CCCNC(=N)N)C(=O)N[C@@H](CO)C(=O)N[C@H](C(N)=O)[C@@H](C)CC (stereo partly drawn) [Compound 8, Pr-RNIARHLA$VGD$NleAibRSI-NH2] (Propionyl-RNIARHLA[ξαMeNle(6-ylidene)]VGD[ξαMeNle(6-ylidene)][Nle][Aib]RSI-NH2; staple 9-13) | 2300 | 2400 |  |  |  | 
5 | CC[C@H](C)[C@H](NC(=O)[C@H](Cc1c[nH]c2ccccc12)NC(=O)[C@H](CCCNC(=N)N)NC(C)=O)C(=O)N[C@@H](C)C(=O)N[C@@H](CCC(N)=O)C(=O)N[C@@H](C)C(=O)N[C@@H](CC(C)C)C(=O)N[C@@H](CCCNC(=N)N)C(=O)NC1(C)CCCC=CCCCC(C)(C(=O)N[C@@H](Cc2ccccc2)C(=O)N[C@@H](CC(N)=O)C(=O)N[C@@H](C)C(=O)N[C@@H](Cc2ccccc2)C(=O)N[C@@H](Cc2ccc(O)cc2)C(=O)N[C@@H](C)C(=O)N[C@@H](CCCNC(=N)N)C(=O)N[C@@H](CCCNC(=N)N)C(N)=O)NC(=O)[C@H](CC(=O)O)NC(=O)CNC(=O)[C@H]([C@@H](C)CC)NC1=O (stereo partly drawn) [Compound 14, Ac-RWIAQALR$1GD$FNAFYARR-NH2] | 2300 | 400 |  |  |  | 
6 | CC[C@H](C)[C@H](NC(=O)[C@H](CCCNC(=N)N)NC(=O)[C@H](CCCNC(=N)N)NC(=O)[C@H](CCCNC(=N)N)NC(=O)[C@H](CC(C)C)NC(=O)[C@H](CCCNC(=N)N)NC(=O)[C@H](CCC(=O)O)NC(C)=O)C(=O)NC1(C)CCCC=CCCCC(C)(C(=O)N[C@@H](Cc2c[nH]cn2)C(=O)N[C@@H](Cc2c[nH]cn2)C(=O)N[C@@H](CO)C(=O)N[C@H](C(N)=O)[C@@H](C)O)NC(=O)[C@H](CCCNC(=N)N)NC(=O)[C@H](CS)NC(=O)[C@H](CC(C)C)NC1=O (stereo partly drawn) [Compound 17, Ac-ERLRRRI$LCR$HHST-NH2] (Ac-ERLRRRI[ξαMeNle(6-ylidene)]LCR[ξαMeNle(6-ylidene)]HHST-NH2; staple 8-12) | < 100 | 12000 | high efficacy in serum-free media, which is substantially reduced in the presence of serum |  |  | 
7 | CC[C@H](C)[C@H](NC(=O)[C@H](CCCNC(=N)N)NC(=O)[C@H](CCCNC(=N)N)NC(=O)[C@H](CCCNC(=N)N)NC(=O)[C@H](CC(C)C)NC(=O)[C@H](CCCNC(=N)N)NC(=O)[C@H](CCC(=O)O)NC(C)=O)C(=O)NC1(C)CCCC=CCCCC(C)(C(=O)N[C@@H](Cc2c[nH]cn2)C(=O)N[C@@H](Cc2c[nH]cn2)C(=O)N[C@@H](CO)C(=O)N[C@H](C(N)=O)[C@@H](C)O)NC(=O)[C@H](CCCNC(=N)N)NC(=O)[C@H](C)NC(=O)[C@H](CC(C)C)NC1=O (stereo partly drawn) [Compound 18, Ac-ERLRRRI$LAR$HHST-NH2] (Ac-ERLRRRI[ξαMeNle(6-ylidene)]LAR[ξαMeNle(6-ylidene)]HHST-NH2; staple 8-12) | < 100 | > 20000 |  |  |  | 
8 | B1 |  |  |  | 2300 | 10500 | 37700
9 | B2 |  |  |  | < 100 | 73900 | > 100000
10 | B3 |  |  |  | 1100 | 12400 | 48200
11 | B4 |  |  |  | 400 | 10100 | 49700
12 | B5 |  |  |  | 200 | 16700 | 63000
